Measured values: patent publication US20030120073A1, “Alpha-ketocarboxylic acid based inhibitors of phosphoryl tyrosine phosphatases” (priority 2001, published 2003)
Like-named read-outs stand apart in the source and are kept apart here.

Legend:
Yersinia PTPase = molecular target: T1, Yersinia PTPase (Yersinia enterocolitica, UniProt P15273); assay: biochemical; format: biochemical
T1 construct: purchased Calbiochem

LAR PTPase = molecular target: T2, LAR PTPase (Homo sapiens, UniProt P10586); assay: LAR PTPase assay (p-NPP hydrolysis, UV at 420 nm); format: biochemical; details: 100 mM acetate pH 5.5, 10% DMSO; read-out: Km of substrate, LAR
T2 construct: purchased Calbiochem
T2 sequence (P10586 1301-1639 limits assumed): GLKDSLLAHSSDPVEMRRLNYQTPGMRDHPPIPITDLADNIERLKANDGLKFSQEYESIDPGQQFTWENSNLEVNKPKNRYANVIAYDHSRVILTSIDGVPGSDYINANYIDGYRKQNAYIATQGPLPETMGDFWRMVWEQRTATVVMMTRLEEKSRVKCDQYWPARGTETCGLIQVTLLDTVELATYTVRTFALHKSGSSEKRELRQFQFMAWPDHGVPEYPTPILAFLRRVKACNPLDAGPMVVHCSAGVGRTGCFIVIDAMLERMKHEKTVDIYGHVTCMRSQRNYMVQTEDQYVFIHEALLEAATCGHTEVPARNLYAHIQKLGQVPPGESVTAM

PTP1B [1] = molecular target: T3, PTP1B (Homo sapiens, UniProt P18031); assay: PTP1B assay (p-NPP hydrolysis, UV at 420 nm); format: biochemical; details: 100 mM acetate pH 5.5, 10% DMSO; read-out: Km of substrate, PTP1B
T3 construct: purchased Calbiochem
T3 sequence (P18031 1-435): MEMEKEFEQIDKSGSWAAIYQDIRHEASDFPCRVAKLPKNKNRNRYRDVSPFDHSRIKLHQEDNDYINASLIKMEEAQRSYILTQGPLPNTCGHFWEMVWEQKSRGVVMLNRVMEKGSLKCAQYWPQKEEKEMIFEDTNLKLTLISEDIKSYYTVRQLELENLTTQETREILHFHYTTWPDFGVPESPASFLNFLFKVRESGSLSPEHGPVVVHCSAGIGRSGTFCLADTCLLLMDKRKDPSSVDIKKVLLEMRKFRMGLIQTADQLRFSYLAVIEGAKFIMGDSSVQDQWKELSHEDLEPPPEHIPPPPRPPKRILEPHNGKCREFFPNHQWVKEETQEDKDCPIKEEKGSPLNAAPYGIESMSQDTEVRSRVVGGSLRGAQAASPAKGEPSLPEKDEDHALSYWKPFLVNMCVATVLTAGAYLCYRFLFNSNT
Procedure: PTP1B Assay: PTP1B (purchased from Calbiochem) was assayed usingp-NPP as the substrate and the reaction progress was monitored by UV spectroscopy. Initial rates were determined by monitoring the hydrolysis of p-NPP at 420 nm, from 10 to 120 s after mixing. Assay solutions contained 1.2 mM substrate, 1 mM EDTA, 100 mM NaCl, and 100 mM acetate at pH 5.5, and 10% DMSO. IC50 values were calculated using a Dixon analysis. Data analysis was performed with the commercial graphing package Grafit (Erithacus Software Ltd.).

PTP1B [2] = molecular target: T3, PTP1B; details: absence of DMSO, acetate buffer pH 5.5; reference 1; read-out: Km of substrate, PTP1B (reported); cited from earlier work

T1 sequence (P15273 whole entry): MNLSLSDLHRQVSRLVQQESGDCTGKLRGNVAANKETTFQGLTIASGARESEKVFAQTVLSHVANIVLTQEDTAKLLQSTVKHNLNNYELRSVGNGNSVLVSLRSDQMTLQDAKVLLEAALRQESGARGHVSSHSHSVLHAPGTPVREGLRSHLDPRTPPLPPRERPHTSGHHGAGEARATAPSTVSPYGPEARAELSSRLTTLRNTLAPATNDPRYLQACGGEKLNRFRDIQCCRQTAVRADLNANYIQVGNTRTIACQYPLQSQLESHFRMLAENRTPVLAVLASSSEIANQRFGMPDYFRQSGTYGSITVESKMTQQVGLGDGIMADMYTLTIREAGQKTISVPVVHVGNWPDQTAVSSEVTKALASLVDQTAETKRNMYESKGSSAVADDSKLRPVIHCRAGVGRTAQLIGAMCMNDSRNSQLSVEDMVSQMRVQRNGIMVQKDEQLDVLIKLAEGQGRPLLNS

Structure (SMILES): COc1ccc(C(=O)C(=O)O)cc1 [Compound 10]
- IC50 (Yersinia PTPase): 150 µM

Structure (SMILES): O=C(O)C(=O)c1c[nH]c2ccccc12 [Compound 8]
- IC50 (Yersinia PTPase): 390 µM

Structure (SMILES): O=C(O)C(=O)c1ccccc1 [Compound 1]
- IC50 (Yersinia PTPase): 2700 µM

Structure (SMILES): O=C(O)C(=O)c1ccc(O)cc1 [Compound 27]
- IC50 (Yersinia PTPase): 200 ± 20 µM

Structure (SMILES): O=C(O)C(=O)c1ccco1 [Compound 11]
- Ki (Yersinia PTPase): 79 µM

Structure (SMILES): O=[N+]([O-])c1ccc(OP(=O)(O)O)cc1 [p-NPP]
- Km (Yersinia PTPase; pH 5.5, read-out: Km of substrate, Yersinia PTPase): 2500 µM
- Km (LAR PTPase): 2100 µM
- Km (PTP1B [1]): 620 µM
- Km (PTP1B [2]): 750 µM
